How the values were obtained:
Karpas-299 cells = assay: sPD-L1 ELISA of supernatants of Karpas-299 cells treated with protease inhibitors; type: cell-based; conditions: for Karpas-299 production of sB7H1: Example 3, supernatants by ELISA, p<0.0001; for sPD-L1 production with increasing concentrations: Karpas-299, 1 MM-10 MM cells/ml, aderbasib 320 pM to 32 mM, FIG. 4F
Procedure: (§1) Several tumor cell lines were treated with PBS (placebo) or with various protease inhibitors, including matrix metalloprotease inhibitors TAPI-2 and TAPI-0, aspartic protease inhibitor Pepstatin, cysteine protease inhibitor E-64, serine protease inhibitor Aprotinin, combinations of these inhibitors, and an array of other matrix metalloprotease inhibitors. Cell supernatants were queried for sPD-L1 by ELISA as published elsewhere (Frigola et la., supra). In brief, paired mouse IgG2 monoclonal antibodies against extracellular rhB7-H1 were utilized in a capture-detection plate assay using biotinylation and HRP-streptavidin detection. […] Concentrations were determined by optical density measurements along a known standard curve of rhB7-H1. Karpas-299 cells were incubated at 10 MM cells per ml in cell culture media (RPMI plus FBS plus Penicillin/Streptomycin plus buffering reagents) over 24 hours in the presence of 1 μl/100 μl DMSO or PBS (placebo), TAPI-2 at 278 μM, Pepstatin at 206.5 μM, E-64 at 185 μM, or Aprotinin at 220 μM, or a combination of the above materials at various concentrations. […] All statistical analyses were performed using R! software. Two-sided, unpaired Student t tests assessed statistical differences in experimental groups except where otherwise indicated. P values indicate comparison to vehicle control groups. P<0.05 was considered statistically significant.
Subsequent studies were conducted in which Karpas-299 cells were incubated with different matrix metalloprotease inhibitors with varying specificities. For example, Karpas-299 cells were incubated at 10 MM cells per ml in cell culture media over 24 hours in the presence of 1 μl/100 μl DMSO (control), 50 μM TAPI-2, 50 μM TAPI-0, 50 μM GI254023X, 5 μM Ro 32-3555, 5 μM ARP 101, 50 μM UK 370106, 500 pM MMP-9 inhibitor I, 5 μM Doxycycline, or some combination thereof.
Aderbasib is a selective inhibitor of matrix metalloproteases ADAM10 and ADAM17. Karpas-299 cells were incubated at 1 MM-10 MM cells/ml and treated for 24 hours with concentrations of aderbasib ranging from 320 pM to […].
(§2) Karpas-299 lymphoma cells producing sB7-H1 were cultured with an array of protease inhibitors. Supernatants from these cultures were isolated and analyzed for sB7H1 concentration by ELISA. Subsequently, activated human CD8+ T cells were cultured with recombinant sB7H1 protein and cell survival was measured at 24 hours. CD8+ T cells also were cultured with sB7H1-rich tumor cell line supernatants versus sB7H1-depleted supernatants over 48 hours in the presence of placebo, low dose (10 nM), or high dose (1 μM) anti-PD-1 antibody pembrolizumab, and cell survival was measured.

[1] = system: Mel-B7H1 (transgenic melanoma) cells; assay: sPD-L1 ELISA of supernatants of Mel-B7H1 cells; type: cell-based; conditions: FIG. 4D
Procedure: as §1, with “significant. […]” for “significant.”

[2] = system: Dul45 prostate cancer cells; assay: sPD-L1 ELISA of supernatants of Dul45 prostate cancer cells; type: cell-based; conditions: FIG. 4C
Procedure: as §1
Further studies were conducted using different types of cells.

[3] = system: A786-0 (renal cell carcinoma) cells; assay: sPD-L1 ELISA of supernatants of A786-0 cells treated with protease inhibitors; type: cell-based; conditions: n=5, FIG. 4E
Procedure: Tumor cells were treated with PBS (placebo) or with various protease inhibitors, including MMP inhibitors TAPI-2 and TAPI-0, aspartic protease inhibitor Pepstatin, cysteine protease inhibitor E-64, serine protease inhibitor Aprotinin, combinations of these inhibitors, and an array of other MMP inhibitors. Cell supernatants were queried for sPD-L1 by ELISA. FIG. 4A, Karpas-299 (lymphoma) cells were treated with the indicated protease inhibitors. FIG. 4B, A786-0 (renal cell carcinoma) cells were treated with the indicated protease inhibitors. FIG. 4C, Dul45 cells were treated with the indicated protease inhibitors. FIG. 4D, Mel-B7H1 (transgenic melanoma) cells were treated with the indicated protease or metalloprotease inhibitors. FIG. 4E is a graph plotting sPD-L1 production induced by interferon treatment or high cell titer in A786-0 cells. Cells grown at 1 MM/ml in control DMSO produced little sPD-L1. […] FIG. 4F is a graph plotting the amount of sPD-L1 in supernatants of Karpas-299 cells treated with control or with varying concentrations of the ADAM10/17 inhibitor aderbasib.
Several tumor cell lines were treated with PBS (placebo) or with various protease inhibitors, including matrix metalloprotease inhibitors TAPI-2 and TAPI-0, aspartic protease inhibitor Pepstatin, cysteine protease inhibitor E-64, serine protease inhibitor Aprotinin, combinations of these inhibitors, and an array of other matrix metalloprotease inhibitors. Cell supernatants were queried for sPD-L1 by ELISA as published elsewhere (Frigola et la., supra). In brief, paired mouse IgG2 monoclonal antibodies against extracellular rhB7-H1 were utilized in a capture-detection plate assay using biotinylation and HRP-streptavidin detection. […] Concentrations were determined by optical density measurements along a known standard curve of rhB7-H1. […] Two-sided, unpaired Student t tests assessed statistical differences in experimental groups except where otherwise indicated. […]

PD-L1 mRNA = PD-L1 mRNA expression by RT-PCR in Karpas-299 cells; type: cell-based; conditions: Karpas-299, 50 μM TAPI-0, 24 hours; data not shown
CD8+ T cells [4] = assay: CD8+ T cell survival with Karpas-299 supernatants, TMRE/Annexin-V flow cytometry; type: cell-based, human; conditions: for survival of CD8+ T cells: with Karpas-299 supernatant
Procedure: CD8+ T cells isolated from healthy subjects were incubated in the presence of 50% Karpas-299 supernatants of varying types and 50% fresh cell culture media. Supernatant types included sPD-L1-rich supernatants from Karpas-299 cells, supernatants from Karpas-299 cells treated with TAPI-0 to prevent sPL-L1 production, supernatants from Karpas-299 cells “spiked” with TAPI-0 after sPD-L1 production, and fresh culture media controls (FIG. 5C). Karpas-299 cell supernatants were generated by incubation at 10 MM cells/ml for 48 hours. TMRE/Annexin-V binding was measured by flow cytometry to assess the level of CD8+ T cell survival. Antibodies and reagents used for flow cytometry were Annexin-V-FITC, anti-mouse CD16/32 (BioLegend; San Diego, Calif.); anti-PD-L1, mouse isotype control (eBioScience/Thermo Fisher Scientific; Waltham, Mass.), TMRE-PE (Abcam; Cambridge, Mass.), BD Wash/Perm (Becton Dickenson; Waltham, Mass.). Flow cytometry was performed and analyzed using FlowJo (Treestar; Ashland, Oreg.).
CD8+ T cells were incubated with supernatants from Karpas-299 cells as above, plus varying doses of several anti-PD-1 antibodies.
as §2

A549 cells [5] = assay: sPD-L1 in supernatants of A549 cells treated with exogenous ADAM17; type: cell-based; conditions: exogenous ADAM17 vs PBS control, FIG. 4G
A549 cells [6] = assay: PD-L1 flow cytometry of A549 cells; type: cell-based; conditions: vs DMSO, FIGS. 7C, 7D
Procedure: FIGS. 7A and 7B are flow cytometry plots and graphs showing that cell PD-L1 expression is restored by treatment with an inhibitor of ADAM10 and/or ADAM17, and is decreased by treatment with exogenous recombinant ADAM10 or ADAM17. Cells were incubated in the presence of the indicated treatments, and PD-L1 flow cytometry was performed.

CD8+ T cells [7] = assay: CD8+ T cell survival with sPD-L1-rich Karpas-299 supernatant, with or without checkpoint inhibitors (trypan blue); type: cell-based, human; conditions: with sPD-L1-rich Karpas-299 supernatant, therapeutic doses of checkpoint inhibitor, n=3, FIG. 5B
Procedure: FIG. 5A is a graph plotting survival of CD8+ human T cells cocultured in the presence of PBS control or 5 μg/ml or 10 μg/ml recombinant sPD-L1. […] FIG. 5B is a graph plotting survival of CD8+ human T cells cultured in the presence of PBS control or sPD-L1-rich Karpas-299 cell line supernatant, in the presence or absence of PD1 or PD-L1 checkpoint inhibitors. Cell survival was measured by trypan blue staining. […] FIGS. 5C and 5D are a series of flow cytometry plots indicating survival of CD8+ T cells treated with various cell extracts and an anti-PD-1 antibody (nivolumab or pembrolizumab) or an anti-PD-L1 antibody (atezolizumab). FIG. 5C, CD8+ T cells isolated from healthy subjects were incubated with sPD-L1-rich supernatants from Karpas-299 cells, supernatants from Karpas-299 cells treated with inhibitor TAPI-0, supernatants from Karpas-299 cells “spiked” with TAPI-0 after isolation, and controls (top), and TMRE uptake/Annexin-V binding was measured by flow cytometry to assess the level of CD8+ T cell survival. CD8+ T cells also were incubated with supernatants from Karpas-299 cells, plus the indicated doses of anti-PD-1 and anti-PD-L1 antibodies (bottom). FIG. 5D, CD8+ T cells were incubated with PD-L1-rich supernatants from A787-0 RCC cells and the indicated concentrations of pembrolizumab. […]

CD8+ T cells [8] = assay: CD8+ T cell survival with A786-0 supernatant plus pembrolizumab; type: cell-based, human; conditions: supernatants from A786-0 RCC cells (20% A786-0 supernatant), increasing concentrations; partial rescue; FIG. 5D
Procedure: FIG. 5A is a graph plotting survival of CD8+ human T cells cocultured in the presence of PBS control or 5 μg/ml or 10 μg/ml recombinant sPD-L1. […] FIG. 5B is a graph plotting survival of CD8+ human T cells cultured in the presence of PBS control or sPD-L1-rich Karpas-299 cell line supernatant, in the presence or absence of PD1 or PD-L1 checkpoint inhibitors. Cell survival was measured by trypan blue staining. […] FIGS. 5C and 5D are a series of flow cytometry plots indicating survival of CD8+ T cells treated with various cell extracts and an anti-PD-1 antibody (nivolumab or pembrolizumab) or an anti-PD-L1 antibody (atezolizumab). FIG. 5C, CD8+ T cells isolated from healthy subjects were incubated with sPD-L1-rich supernatants from Karpas-299 cells, supernatants from Karpas-299 cells treated with inhibitor TAPI-0, supernatants from Karpas-299 cells “spiked” with TAPI-0 after isolation, and controls (top), and TMRE uptake/Annexin-V binding was measured by flow cytometry to assess the level of CD8+ T cell survival. CD8+ T cells also were incubated with supernatants from Karpas-299 cells, plus the indicated doses of anti-PD-1 and anti-PD-L1 antibodies (bottom). FIG. 5D, CD8+ T cells were incubated with PD-L1-rich supernatants from A787-0 RCC cells and the indicated concentrations of pembrolizumab.
In brief, A786-0 cells were incubated at 10 MM cells/ml for 48 hours. […]

[9] = antibody at 1 μM, 1 μM pembrolizumab among the most effective, FIG. 5C

CNC(=O)[C@@H](NC(=O)[C@H](CCCc1ccccc1)[C@H](C)N(O)C=O)C(C)(C)C [GI254023X]
Karpas-299 production of sB7H1 (Karpas-299 cells): inhibited
sPD-L1 expression [1]: most significantly reduced

CCN(CC)Cc1cc(C)c(N(Cc2ccccc2)S(=O)(=O)c2ccc(OC)cc2)c(C(=O)NO)c1 [MMPI9]
sPD-L1 secretion versus controls [2]: significantly reduced

CC(C)C[C@H](CC(=O)NO)C(=O)N[C@@H](Cc1ccc2ccccc2c1)C(=O)N[C@@H](C)C(N)=O [TAPI-0]
Karpas-299 production of sB7H1 (Karpas-299 cells): inhibited
secretion of sPD-L1 (Karpas-299 cells; Karpas-299, 10 MM cells per ml, 24 hours, 50 μM TAPI-0, vs DMSO, FIG. 4A, p=3.97×10^−7): reduced the secretion of sPD-L1
mean sPD-L1 production ([3]; A786-0 at 1 MM/ml, interferon plus TAPI-0, interferon alone 923 pg/ml): 0 pg/mL
sPD-L1 secretion versus controls [2]: significantly reduced
PD-L1 mRNA expression (PD-L1 mRNA): without reducing PD-L1 mRNA expression
rate of apoptosis of CD8+ T cells (CD8+ T cells [4]; 50% supernatant from TAPI-0 treated Karpas-299 cells and 50% fresh media, FIG. 5C): 2.46%
CD8+ T cell death (CD8+ T cells [4]; Karpas-299 supernatants with added TAPI-0): did not induce cell death

COC(=O)N1CC2(CC2)C[C@H](C(=O)NO)[C@H]1C(=O)N1CCN(c2ccccc2)CC1 [aderbasib]
sPD-L1 production with increasing concentrations (Karpas-299 cells; 24 hours): decreasing concentrations of sPD-L1
sPD-L1 production with increasing concentrations (Karpas-299 cells; 24 hours, listed as Aderbasib): reduces sPD-L1 production
mean sPD-L1 production ([3]; A786-0 at 10 MM/ml, control DMSO 886 pg/ml, p=0.00018): 276 pg/mL
sPD-L1 secretion versus controls [2]: significantly reduced

ADAM17 (TACE): commercially-obtained, recombinant form of ADAM17 (TACE)
detectable sPD-L1 secreted (A549 cells [5]): higher amounts
PD-L1 expression (flow cytometry) (A549 cells [6]): decreased

nivolumab: anti-PD-1 antibody, trade name OPDIVO
rescue of CD8+ T cell survival (CD8+ T cells [7]): did not rescue
survival of CD8+ T cells (CD8+ T cells [4]; [9]): increased the survival

pembrolizumab: humanized anti-PD-1 antibody, trade name KEYTRUDA
rescue of CD8+ T cell survival (CD8+ T cells [7]): did not rescue
sB7-H1-containing supernatant-induced CD8+ T cell death (CD8+ T cells [4]; Example 3, 48 hours, high dose (1 μM)): decreased
survival of CD8+ T cells (CD8+ T cells [4]; antibody at 10 nM, FIG. 5C): increased the survival
survival of CD8+ T cells (CD8+ T cells [4]; [9]): increased the survival
survival of CD8+ T cells (CD8+ T cells [8]): increased the survival

B1: ADAM10: exogenous recombinant ADAM10 (protein)
chain: TTSAEKNTCQLYIQTDHLFFKYYGTREAVIAQISSHVKAIDTIYQTTDFSGIRNISFMVKRIRINTTADEKDPTNPFRFPNIGVEKFLELNSEQNHDDYCLAYVFTDRDFDDGVLGLAWVGAPSGSSGGICEKSKLYSDGKKKSLNTGIITVQNYGSHVPPKVSHITFAHEVGHNFGSPHDSGTECTPGESKNLGQKENGNYIMYARATSGDKLNNNKFSLCSIRNISQVLEKKRNNCFVESGQPICGNGMVEQGEECDCGYSDQCKDECCFDANQPEGRKCKLKPGKQCSPSQGPCCTAQCAFKSKSEKCRDDSDCAREGICNGFTALCPASDPKPNFTDCNRHTQVCINGQCAGSICEKYGLEECTCASSDGKDDKELCHVCCMKKMDPSTCASTGSVQWSRHFSGRTITLQPGSPCNDFRGYCDVFMRCRLVDADGPLARLKKAIFSPELYENIAE
PD-L1 expression (flow cytometry) (A549 cells [6]): decreased

From patent publication US20210361767A1, “RESCUING CANCER PATIENTS FROM RESISTANCE TO TREATMENT WITH INHIBITORS OF PD-1/PD-L1 INTERACTIONS” (Mayo Foundation for Medical Education and Research, priority 2018, published 2021)
